Measurements from US11780826B2 (Amgen Inc., priority 2017, dated 2023).

system: Bovine cardiac myofibrils; experiment: In vitro model of dose-dependent myofibril ATPase modulation (AC1.4, pyruvate kinase/lactate dehydrogenase-coupled ATPase assay at pCa25); type: biochemical; settings: concentration at which ATPase activity was 1.4-fold higher than the bottom of the dose curve, mean of a minimum of two independent tests
Outline: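 ATP turnover tracked as NADH absorbance loss at 340 nm, coupled via pyruvate kinase/lactate dehydrogenase, with 1 mM ATP, 2 mM MgCl2 and 12 mM K-PIPES at pH 6.80 (22° C) under EGTA/CaCl2 calcium buffering. Substrate was detergent-treated bovine cardiac myofibrils; 4-parameter curve fit, AC1.4 averaged over at least two runs.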

| SMILES | AC1.4 [µM] |
| --- | --- |
| N#CC1CN(S(=O)(=O)N2CCC[C@H](C(=O)N3[C@@H](C(=O)NCc4ccc(C(F)(F)F)nc4)C[C@H]4C[C@H]43)C2)C1 [Example 326] | 0.8885 |
| N#CC1(F)CN(S(=O)(=O)N2CCC[C@H](C(=O)N3CCC[C@@H]3C(=O)NCc3ccc(C(F)(F)F)cc3F)C2)C1 [Example 327, 1-(((3S)-1-((3-cyano-3-fluoro-1-azetidinyl)sulfonyl)-3-piperidinyl)carbonyl)-N-(2-fluoro-4-(trifluoromethyl)benzyl)-D-prolinamide] | 0.8893 |
| CC(C)C1(O)CN(S(=O)(=O)N2CCC[C@H](C(=O)N3CCC[C@@H]3C(=O)NCc3ccc(C(F)(F)F)cc3F)C2)C1 [Example 332, N-(2-fluoro-4-(trifluoromethyl)benzyl)-1-(((3S)-1-((3-hydroxy-3-(2-propanyl)-1-azetidinyl)sulfonyl)-3-piperidinyl)carbonyl)-D-prolinamide] | 0.9097 |
| N#CC1CN(S(=O)(=O)N2CCC[C@H](C(=O)N3CCC[C@@H]3C(=O)NCc3ccc(Cl)c(C(F)(F)F)c3)C2)C1 [Example 333, N-(4-chloro-3-(trifluoromethyl)benzyl)-1-(((3S)-1-((3-cyano-1-azetidinyl)sulfonyl)-3-piperidinyl)carbonyl)-D-prolinamide] | 0.921 |
| Cc1ccc(CNC(=O)[C@H]2CCCN2C(=O)[C@@H]2CN(S(=O)(=O)N3CC(C#N)C3)CCN2)cc1F [Example 334, 1-(((2S)-4-((3-cyano-1-azetidinyl)sulfonyl)-2-piperazinyl)carbonyl)-N-(3-fluoro-4-methylbenzyl)-D-prolinamide] | 0.9294 |
| N#CC1CN(S(=O)(=O)N2CCC[C@H](C(=O)N3CCC[C@@H]3C(=O)NCc3cccc(C(F)(F)F)c3F)C2)C1 [Example 335, 1-(((3S)-1-((3-cyano-1-azetidinyl)sulfonyl)-3-piperidinyl)carbonyl)-N-(2-fluoro-3-(trifluoromethyl)benzyl)-D-prolinamide] | 0.9362 |
| Cc1ccc(CNC(=O)[C@H]2CCCN2C(=O)[C@H]2CCCN(S(=O)(=O)N3CC(C#N)C3)C2)cc1C [Example 336, 1-(((3S)-1-((3-cyano-1-azetidinyl)sulfonyl)-3-piperidinyl)carbonyl)-N-(3,4-dimethylbenzyl)-D-prolinamide] | 0.9372 |
| C[C@H](C(=O)NCc1ccc(Cl)cc1)N(C)C(=O)c1cccc(S(=O)(=O)N2CC(C#N)C2)c1 [Example 337, N-((1R)-2-((4-chlorobenzyl)amino)-1-methyl-2-oxoethyl)-3-((3-cyano-1-azetidinyl)sulfonyl)-N-methylbenzamide] | 0.9477 |
| N#CC1CN(S(=O)(=O)N2CCC[C@H](C(=O)N3CCC[C@@H]3C(=O)NCc3c(F)c(F)c(F)c(F)c3F)C2)C1 [Example 338, 1-(((3S)-1-((3-cyano-1-azetidinyl)sulfonyl)-3-piperidinyl)carbonyl)-N-(pentafluorobenzyl)-D-prolinamide] | 0.948 |
| O=C(NCc1ccc(C(F)(F)F)cc1)[C@H]1CCCN1C(=O)[C@H]1CCCN(S(=O)(=O)N2CCC2c2ccccc2)C1 (stereo partly drawn) [Example 339, 1-(((3S)-1-(((2R)-2-phenyl-1-azetidinyl)sulfonyl)-3-piperidinyl)carbonyl)-N-(4-(trifluoromethyl)benzyl)-D-prolinamide,1-(((3S)-1-(((2S)-2-phenyl-1-azetidinyl)sulfonyl)-3-piperidinyl)carbonyl)-N-(4-(trifluoromethyl)benzyl)-D-prolinamide] | 0.9511 |
| O=C(NCc1ccc(C(F)(F)F)cc1)[C@H]1CCCN1C(=O)[C@H]1CCCN(S(=O)(=O)N2CC(OC(F)F)C2)C1 [Example 343, 1-(((3S)-1-((3-(difluoromethoxy)-1-azetidinyl)sulfonyl)-3-piperidinyl)carbonyl)-N-(4-(trifluoromethyl)benzyl)-D-prolinamide] | 0.9742 |

Second part, the compound after the results:

| AC1.4 [µM] | SMILES |
| --- | --- |
| 0.8776 | CS(=O)(=O)c1cccc(C(=O)N2CCOC[C@@H]2C(=O)N[C@@H](c2cc(F)c(Cl)cc2F)C2CC2)c1 [Example 328, (3R)-N-((R)-(4-chloro-2,5-difluorophenyl)(cyclopropyl)methyl)-4-(3-(methylsulfonyl)benzoyl)-3-morpholinecarboxamide] |
| 0.8921 | O=C(NCc1ccc(C(F)(F)F)cc1)[C@H]1CCCN1C(=O)c1cccc(S(=O)(=O)N2CC3(COC3)C2)c1 [Example 329, 1-((3-(2-oxa-6-azaspiro[3.3]hept-6-ylsulfonyl)phenyl)carbonyl)-N-(4-(trifluoromethyl)benzyl)-D-prolinamide] |
| 0.8972 | C[C@H](NC(=O)[C@H]1CCCN1C(=O)c1cccc(S(=O)(=O)N2CC(C#N)C2)c1)c1ccc(Cl)cc1 [Example 330, N-((1S)-1-(4-chlorophenyl)ethyl)-1-((3-((3-cyano-1-azetidinyl)sulfonyl)phenyl)carbonyl)-D-prolinamide] |
| 0.8976 | C[C@H](NC(=O)[C@@H](C)N(C)C(=O)c1cccc(S(=O)(=O)N2CC(C#N)C2)c1)c1ccc(Cl)cc1 [Example 331, N-((1R)-2-(((1S)-1-(4-chlorophenyl)ethyl)amino)-1-methyl-2-oxoethyl)-3-((3-cyano-1-azetidinyl)sulfonyl)-N-methylbenzamide] |
| 0.8898 | NS(=O)(=O)c1cccc(C(=O)N2C[C@H]3C[C@H]3[C@@H]2C(=O)N[C@@H](c2cc(F)c(Cl)cc2F)C2CC2)c1 [Example 340, (1R,2R,5S)-N-((R)-(4-chloro-2,5-difluorophenyl)(cyclopropyl)methyl)-3-(3-sulfamoylbenzoyl)-3-azabicyclo[3.1.0]hexane-2-carboxamide] |
| 0.9606 | C[C@H](C(=O)NCc1ccc(Cl)c(Cl)c1)N(C)C(=O)c1cccc(S(=O)(=O)N2CC(C#N)C2)c1 [Example 341, 3-((3-cyano-1-azetidinyl)sulfonyl)-N-((1R)-2-((3,4-dichlorobenzyl)amino)-1-methyl-2-oxoethyl)-N-methylbenzamide] |
| 0.9661 | CS(=O)(=O)c1cncc(C(=O)N2CSC[C@@H]2C(=O)N[C@@H](c2ccc(C(F)(F)F)cc2F)C2CC2)c1 [Example 342, (4S)-N-((R)-cyclopropyl(2-fluoro-4-(trifluoromethyl)phenyl)methyl)-3-((5-(methylsulfonyl)-3-pyridinyl)carbonyl)-1,3-thiazolidine-4-carboxamide] |
| 0.9555 | CS(=O)(=O)c1cccc(C(=O)N2[C@@H](C(=O)N[C@@H](c3ccc(Cl)cc3F)C3CC3)C[C@H]3C[C@H]32)c1 [Example 344, (1R,3R,5R)-N-((R)-(4-chloro-2-fluorophenyl)(cyclopropyl)methyl)-2-(3-(methylsulfonyl)benzoyl)-2-azabicyclo[3.1.0]hexane-3-carboxamide] |
| 0.9744 | CS(=O)(=O)c1ccc(N)c(C(=O)N2CCC[C@@H]2C(=O)N[C@@H](c2ccc(C(F)(F)F)cc2F)C2CC2)c1 [Example 345, 1-(2-amino-5-(methylsulfonyl)benzoyl)-N-((R)-cyclopropyl(2-fluoro-4-(trifluoromethyl)phenyl)methyl)-D-prolinamide] |
| 1.0139 | COC(=O)CN(C)S(=O)(=O)c1cccc(C(=O)N2CCC[C@@H]2C(=O)NCc2ccc(C(F)(F)F)cc2)c1 [Example 346, methyl (R)-2-(N-methyl-3-(2-((4-(trifluoromethyl)benzyl)carbamoyl)pyrrolidine-1-carbonyl)phenylsulfonamido)acetate] |
